Data reported in patent US20150337276A1, “ENZYME HAVING A NMDA RECEPTOR ANTAGONIST ACTIVITY AND/OR AN ANTICHOLINERGIC ACTIVITY” (priority 2012, published 2015).

Legend:
[1] = test system: cortical neurons; assay: Neurite network density (NF-H labeling) of cortical neurons under basal conditions, potential neurotoxic effect; conditions: enzymes 2.5 μM for 30 hours, glutamate 100 μM for 6 hours
[2] = test system: glutamate intoxicated-cortical neurons; assay: Neurite network density (NF-H labeling) of glutamate-intoxicated cortical neurons, neuroprotective effect; assay type: cell-based, rat; conditions: intoxicated conditions (glutamate 100 μM, 6 hours)
Experimental: Culture conditions: 37° C., 5% CO2
At DIV9, the reference MK-801 (10 μM) was pre-incubated for 30 minutes before glutamate intoxication. Cortical neurons were then incubated for 6 hours with 100 μM of glutamate in presence or not (intoxicated control) of test compounds, the solvent control or the reference. A control without glutamate (non-intoxicated control) was performed in parallel. All experimental conditions were performed in n=3.
All the images were taken under the same conditions.
Raw data were analyzed with Microsoft Excel® software.

[3] = test system: NMDA receptor; assay: NMDA current recording by patch clamp (whole cell, voltage clamp -30 mV) in dorsal root ganglia nociceptor neurons; assay type: cell-based, rat; conditions: for Percentage inhibition of NMDA current: NMDA 250 μM, holding potential -30 mV
Experimental: In one embodiment, the NMDA antagonist activity of the enzyme of the invention is measured by electrophysiology, as shown in Example 3. In one embodiment, said measurement is performed on dorsal root ganglion nociceptor neurons of rats.
The culture conditions of dorsal root ganglia neurons of rats were adapted from Hao and Delmas (J Neurosci. 2010, 6; 30(40)).
NMDA current recordings are performed in neurons of small and medium diameter (nociceptors). Neurons are identified visually and electrophysiologically by measuring their membrane capacitance. […] These neurons express the NMDA receptor in the dorsal root ganglia. Nociceptors are specifically identified by the presence of TTX-resistant Nav1.8 sodium current. Each neuron is tested for the presence upstream of Nav1.8.
NMDA currents are low amplitude currents. Thus, electrical leakage is carefully checked during recording. Infusion or injection of products was performed close to neurons to avoid changes in concentration (dilution effect). Media infusion was extemporaneously daily handled. Products OPN-001 were diluted from stock solutions and stored at 4° C. The data were collected using an Axopatch amplifier 200-B, the Clampex software (PClamp V10, Molecular Device) and stored and analyzed using Clampfit.

With `N[C@@H](CCC(=O)O)C(=O)O` [Glutamate] the “Mean NF-H-positive neurite surface” value ([1]; basal conditions (no glutamate), n=3) was 21503 μm^2 and the “Intoxication (%)” value ([1]; basal conditions, normalized to control) was 34%.
For `C[C@]12N[C@H](Cc3ccccc31)c1ccccc12` [MK801], the “Mean NF-H-positive neurite surface” value ([2]; enzymes 2.5 μM pre-incubated 24 hours, MK801 10 μM pre-incubated 30 minutes, n=3) was 32319 μm^2 and the “Protection (%)” value ([2]; enzymes 2.5 μM, MK801 10 μM) was ~96%.
For `[Cl-].[Cl-].[Zn+2]` [ZnCl2], the “efficiency in inhibiting NMDA current, in words” value ([3]; 5 nM, alone) was “not efficient”, the “time for the blocking effect on NMDA current to occur, in words” value ([3]; 50 nM and 500 nM) was “within seconds” and the “inhibition of the NMDA current, trace (FIG. 1B), in words” value ([3]; 50 nM, 200 μl applied alone, NMDA 250 μM for 80 s) was “inhibits all of the NMDA current”. The “Percentage inhibition of NMDA current” value ([3]; test substance 5 nM) was 0%, the “Percentage inhibition of NMDA current” value ([3]; test substance 50 nM, mean of neurons) was 100% and the “Percentage inhibition of NMDA current” value ([3]; test substance 500 nM, mean of neurons) was 100%.
